Literature values, collected in PMC4494773, “Design, synthesis, antiviral and cytotoxic evaluation of novel acyclic phosphonate nucleotide analogues with a 5,6-dihydro-1H-[1,2,3]triazolo[4,5-d]pyridazine-4,7-dione system” (Monatshefte Fur Chemie, 2014).

Legend:
HIV-1 = test system: HIV-1; design: method as in PMID 12901908
[1] = test system: viral helicase from West Nile Virus (WNV); design: method as in PMID 11959550
viral helicase from HCV = test system: viral helicase from HCV; design: method as in PMID 11959550

Row | SMILES | antiviral activity against HIV-1 (HIV-1) | antiviral activity by inhibition of a viral helicase [1] | antiviral activity by inhibition of a viral helicase (viral helicase from HCV)
1 | NC(=O)c1nnn(C2CC(CO)CC2O)c1N (stereo not drawn) [compound 1] | displayed antiviral activity | – | –
2 | NC(=O)c1cn(C2CC(CCP(=O)(O)O)CC2O)nn1 (stereo not drawn) [compound 2] | displayed antiviral activity | – | –
3 | O=c1[nH][nH]c(=O)c2c1ncn2C1OC(CO)C(O)C1O (stereo not drawn) [compound 5] | – | exhibited antiviral activity by inhibition of a viral helicase | exhibited antiviral activity by inhibition of a viral helicase
4 | COC1C(O)C(CO)OC1n1cnc2c(=O)[nH][nH]c(=O)c21 (stereo not drawn) [compound 6] | – | exhibited antiviral activity by inhibition of a viral helicase | exhibited antiviral activity by inhibition of a viral helicase
